Measurements published in patent US9326513B2, “Fungicidal compositions” (Syngenta Participations AG, priority 2011, dated 2016).

Assays:
Type in all cases: in vivo
Conditions in all cases: foliar, compared to untreated control leaf disks, read-out: disease control
[1] = test system: Blumeria graminis f. sp. tritici (Erysiphe graminis f. sp. tritici); assay: Blumeria graminis f. sp. tritici / wheat / leaf disc preventative (powdery mildew on wheat)
In short: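 Preventative leaf-disc test: compound (200 ppm) was sprayed onto cv. Kanzler wheat segments, which were dusted with conidia from infected plants 1 day after application. After incubation at 20° C and 60% rh, disease control relative to untreated segments was rated 6-8 days after application.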

[2] = test system: Puccinia recondita f. sp. tritici; assay: Puccinia recondita f. sp. tritici / wheat / leaf disc preventative (brown rust)
Excerpt: Puccinia recondita f. sp. tritici/Wheat/Leaf Disc Preventative (Brown Rust) Wheat leaf segments cv. Kanzler were placed on agar in multiwell plates (24-well format) and sprayed with the formulated test compound diluted in water. The leaf disks were inoculated with a spore suspension of the fungus 1 day after application.

[3] = test system: Puccinia recondita f. sp. tritici; assay: Puccinia recondita f. sp. tritici / wheat / leaf disc curative (brown rust)
Description: Puccinia recondita f. sp. tritici/Wheat/Leaf Disc Curative (Brown Rust) Wheat leaf segments cv. Kanzler are placed on agar in multiwell plates (24-well format). The leaf segments are inoculated with a spore suspension of the fungus. Plates were stored in darkness at 19° C. and 75% rh. The formulated test compound diluted in water was applied 1 day after inoculation.

Pyrenophora teres = Pyrenophora teres / barley / leaf disc preventative (net blotch)
Excerpt: Pyrenophora teres/Barley/Leaf Disc Preventative (Net Blotch) Barley leaf segments cv. Hasso were placed on agar in a multiwell plate (24-well format) and sprayed with the formulated test compound diluted in water. The leaf segments were inoculated with a spore suspension of the fungus 2 days after application.

Measured: pest or weed control at 200 ppm

CCN(C)/C=N/c1cc(C(C)C)c(OC(C)c2cc(F)cc(F)c2)nc1C (stereo not drawn) [Q.280]
≥ 50%: all assays above

CCN(C)/C=N/c1cc(Br)c(OC(C)c2ccns2)nc1C (stereo not drawn) [Q.246]
≥ 50%: all assays above

CCN(C)/C=N/c1cc(Br)c(OC(C)C2CCCc3ccccc32)nc1C (stereo not drawn) [Q.227]
≥ 50%: all assays above

CCN(C)/C=N/c1cc(Br)c(OCc2ccns2)nc1C [Q.143]
≥ 50%: all assays above

CCN(C)/C=N/c1cc(Br)c(OCc2ccccc2C#N)nc1C [Q.304]
≥ 50%: all assays above

CCN(C)/C=N/c1cc(C2CC2)c(OC(C)c2cc(F)cc(F)c2)nc1C (stereo not drawn) [Q.216]
≥ 50%: all assays above

CCN(C)/C=N/c1ccc(O[C@H]2CC[C@H](CC)CC2)nc1C [Q.380]
≥ 50%: all assays above

CCc1nc(OCc2ccccc2C)c(Br)cc1/N=C/N(C)CC [Q.398]
≥ 50%: all assays above

CCN(C)/C=N/c1cc(Br)c(OC2CCN(C(=O)OC(C)(C)C)CC2)nc1C [Q.038]
≥ 50%: all assays above

CCN(C)/C=N/c1cc(Br)c(OC(C)CC(C)C)nc1C (stereo not drawn) [Q.392]
≥ 50%: all assays above

CCN(C)/C=N/c1cc(Br)c(OCCc2ccccc2)nc1C [Q.099]
≥ 50%: all assays above

CCN(C)/C=N/c1cc(Br)c(OCCCCc2ccccc2)nc1C [Q.148]
≥ 50%: all assays above

CCN(C)/C=N/c1cc(Br)c(OC2CCC(C)=C(C)CC2)nc1C [Q.231]
≥ 50%: all assays above

CCN(C)/C=N/c1cc(Br)c(OC(C)Cc2cc(Cl)cc(Cl)c2)nc1C (stereo not drawn) [Q.221]
≥ 50%: all assays above

CCN(C)/C=N/c1cc(Br)c(OCC#Cc2cccc(OC)c2)nc1C [Q.020]
≥ 50%: all assays above

CCN(C)/C=N/c1cc(Br)c(OC2CCC(c3ccccc3)CC2)nc1C (stereo not drawn) [Q.082]
≥ 50%: all assays above

CCN(C)/C=N/c1cc(Br)c(OCc2cccc(C(F)F)c2)nc1C [Q.170]
≥ 50%: all assays above

Cc1nc(OC(C)c2cc(F)cc(F)c2)c(Br)cc1/N=C/N1CCCC1 (stereo not drawn) [Q.193]
≥ 50%: all assays above

CCN(C)/C=N/c1cc(Br)c(OCCc2ccc(OC)cc2)nc1C [Q.011]
≥ 50%: all assays above

CCc1cccc(C(C)Oc2nc(C)c(/N=C/N(C)CC)cc2Br)c1 (stereo not drawn) [Q.284]
≥ 50%: all assays above

CCN(C)/C=N/c1cc(-c2ccccc2)c(OC2CC=CC2)nc1C [Q.262]
≥ 50%: all assays above

CCN(C)/C=N/c1cc(Br)c(OC2CCc3ccc(/C(C)=N/OC)cc3C2)nc1C (stereo not drawn) [Q.039]
≥ 50%: all assays above

CCN(C)/C=N/c1cc(Br)c(OC2Cc3ccc(Cl)cc3C2)nc1C (stereo not drawn) [Q.233]
≥ 50%: all assays above

CCN(C)/C=N/c1cc(Br)c(OC(C)CCCc2ccccc2)nc1C (stereo not drawn) [Q.201]
≥ 50%: all assays above

C=CCCCOc1nc(C)c(/N=C/N(C)CC)cc1C [Q.057]
≥ 50%: all assays above

C=CCCCOc1nc(C)c(/N=C/N(C)CC)cc1Br [Q.034]
≥ 50%: all assays above

CCN(C)/C=N/c1cc(Br)c(OC2CCC(OC)CC2)nc1C (stereo not drawn) [Q.166]
≥ 50%: all assays above

CCN(C)/C=N/c1cc(Br)c(OC2CCc3ccc(C(C)O)cc3C2)nc1C (stereo not drawn) [Q.044]
≥ 50%: all assays above

CCN(C)/C=N/c1cc(Br)c(OCc2ccc(Cc3ccccc3)cc2)nc1C [Q.121]
≥ 50%: all assays above

CCN(C)/C=N/c1cc(Br)c(OC(C)c2ccc3c(c2)CCCC3)nc1C (stereo not drawn) [Q.238]
≥ 50%: all assays above

CCN(C)/C=N/c1cc(Br)c(OCCCCc2ccc(OC)cc2)nc1C [Q.046]
≥ 50%: all assays above

CCN(C)/C=N/c1cc(C2CC2)c(OC2Cc3cc(OC)c(OC)cc3C2)nc1C [Q.069]
≥ 50%: all assays above

CCN(C)/C=N/c1cc(Br)c(OC2CCC(=O)C=C2C)nc1C (stereo not drawn) [Q.282]
≥ 50%: all assays above

CCN(C)/C=N/c1cc(Br)c(OCc2cccnc2)nc1C [Q.106]
≥ 50%: all assays above

CCN(C)/C=N/c1cc(Br)c(OC(C)C2CCc3ccccc3C2)nc1C (stereo not drawn) [Q.225]
≥ 50%: all assays above

CCN(C)/C=N/c1ccc(O[C@H]2CC[C@@H](C(C)C)CC2)nc1C [Q.183]
≥ 50%: all assays above

CCN(C)/C=N/c1cc(Br)c(OC2CCCC(Oc3ccccn3)C2)nc1C (stereo not drawn) [Q.240]
≥ 50%: all assays above

CCN(C)/C=N/c1cc(Br)c(OC2CCS(=O)(=O)CC2)nc1C [Q.161]
≥ 50%: all assays above

CCN(C)/C=N/c1cc(Br)c(OC(C)c2ccc(F)c(F)c2)nc1C (stereo not drawn) [Q.204]
≥ 50%: all assays above

CCN(C)/C=N/c1cc(Br)c(OCCCC(O)CCl)nc1C (stereo not drawn) [Q.059]
≥ 50%: all assays above

CCN(C)/C=N/c1cc(Br)c(OC(C)Cc2cccc(F)c2)nc1C (stereo not drawn) [Q.218]
≥ 50%: all assays above

CCCN(C)/C=N/c1cc(Br)c(OC(C)c2cc(F)cc(F)c2)nc1C (stereo not drawn) [Q.191]
≥ 50%: all assays above
